# Experimental data taken from patent US7850994B1, “Xerogel films for the controlled release of pharmaceutically active molecules” (The Trustees of the University of Pennsylvania, priority 2005, dated 2010).
# Several values for one entry are separate records, joined by “and”; a condition that tells them apart may be missing. Equal values may be shown once.
# Tests used:
# Staphylococcus aureus = conditions: against Staphylococcus aureus; cited from earlier work
# [1] = Stability / precipitation of vancomycin in sols; type: physicochemical; conditions: water-free sol prepared as described by Böttcher et al
# Description: Vancomycin is a water-soluble drug. Sols with nominal vancomycin (Vancomycin-HCL, NovaPlus) concentrations of 5, 10, and 20% by weight were made by adding corresponding amounts of vancomycin dissolved in DI water to the sol. Although sols with various vancomycin concentrations were stable for several days, only freshly prepared mixtures were used for the application of the coatings.
# Modification of the process of sol preparation was required to avoid the precipitation. It was achieved by adding water at the TEOS hydrolysis step. […] The sols with vancomycin concentrations varying from 3 to 30% by weight were stable over several days. The sols of modified compositions were successfully used for depositing vancomycin-loaded thin xerogel films to a Ti alloy substrate.
structure (smiles),measurement,setting,value
CN[C@H](CC(C)C)C(=O)N[C@H]1C(=O)N[C@@H](CC(N)=O)C(=O)N[C@H]2C(=O)N[C@H]3C(=O)N[C@H](C(=O)N[C@H](C(=O)O)c4cc(O)cc(O)c4-c4cc3ccc4O)[C@H](O)c3ccc(c(Cl)c3)Oc3cc2cc(c3O[C@@H]2O[C@H](CO)[C@@H](O)[C@H](O)[C@H]2O[C@H]2C[C@](C)(N)[C@H](O)[C@H](C)O2)Oc2ccc(cc2Cl)[C@H]1O [vancomycin],Minimal Inhibitory Concentration (MIC),Staphylococcus aureus,1.5 to 3 µg/mL and 1.5 to 3.12 µg/mL
same,precipitation on adding a water solution of vancomycin to a sol,[1],immediate precipitation of the drug in the sol
